A word on the pKi: it is −log10 of the Ki, conventionally taken in molar units.

Molecules are shown by their SMILES. pKi: −log10 of the molar value.

The results in this text go back to ChEMBL document CHEMBL1134339, “New 1-aryl-3-(4-arylpiperazin-1-yl)propane derivatives, with dual action at 5-HT1A serotonin receptors and serotonin transporter, as a new class of antidepressants” (J Med Chem, 2001).

Test [1] relates to Rattus norvegicus. The test is described as follows: Effect on helpless behavior in rats and the number of escape failures was determined in shuttle-box session-1 (SB-1) at 1 mg/kg dose. The class given is functional.
In test [2] the test system is Rattus norvegicus. The test is described as follows: Effect on helpless behavior in rats and the number of escape failures was determined in shuttle-box session-3 (SB-3) at 1 mg/kg dose. The format is functional.
The test system of test [3] is Rattus norvegicus. The test is described as follows: Effect on helpless behavior in rats and the number of escape failures was determined in shuttle-box session-2 (SB-2) at 1 mg/kg dose. The format is functional.
The subject of test [4] is Mus musculus. The test is described as follows: Effect on immobility time in the forced swimming test (FST) in mice at 1 mg/kg dose. The format is functional.
Test [5] deals with Mus musculus. In words: Time-dependent effect on 8-OH-DPAT-induced hypothermia (change in body temperature) after 15 min, in mice at 0.5 mg/kg dose. The class given is functional.
The subject of test [6] is Mus musculus. In words: Time-dependent effect on 8-OH-DPAT-induced hypothermia (change in body temperature) after 30 min, in mice at 0.5 mg/kg dose. The class given is functional.
Test [7] deals with Mus musculus. The test is described as follows: Time-dependent effect on 8-OH-DPAT-induced hypothermia (change in body temperature) after 60 min, in mice at 0.5 mg/kg dose. The class given is functional.
The test system of test [8] is Mus musculus. In words: Effect on immobility time in the forced swimming test (FST) in mice at 0 mg/kg dose. The class given is functional.
Test [9] concerns Mus musculus. In words: Time-dependent effect on 8-OH-DPAT-induced hypothermia (change in body temperature) after 15 min, in mice at 5 mg/kg dose. The format is functional.
The test system of test [10] is Mus musculus. In words: Effect on immobility time in the forced swimming test (FST) in mice at 10 mg/kg dose. The format is functional.
Test [11] addresses Sodium-dependent serotonin transporter (Rattus norvegicus, UniProt P31652). The test is described as follows: Binding affinity towards Serotonin transporter from rat cortex measured using [3H]paroxetine.
Test [12] concerns Mus musculus. In words: Time-dependent effect on 8-OH-DPAT-induced hypothermia (change in body temperature) after 30 min, in mice at 5 mg/kg dose. The format is functional.
The subject of test [13] is Mus musculus. The test is described as follows: Antidepressant-like activity in the forced swimming test (FST) in mice at 1 mg/kg dose. The format is functional.
The subject of test [14] is Mus musculus. In words: Antidepressant-like activity in the forced swimming test (FST) in mice at 10 mg/kg dose. The class given is functional.
Test [15] relates to Mus musculus. The test is described as follows: Time-dependent effect on 8-OH-DPAT-induced hypothermia (change in body temperature) after 60 min, in mice at 5 mg/kg dose. The format is functional.
Test [16] concerns the target T1, 5-hydroxytryptamine receptor 1A (Rattus norvegicus, UniProt P19327).
T1 sequence (P19327 whole entry): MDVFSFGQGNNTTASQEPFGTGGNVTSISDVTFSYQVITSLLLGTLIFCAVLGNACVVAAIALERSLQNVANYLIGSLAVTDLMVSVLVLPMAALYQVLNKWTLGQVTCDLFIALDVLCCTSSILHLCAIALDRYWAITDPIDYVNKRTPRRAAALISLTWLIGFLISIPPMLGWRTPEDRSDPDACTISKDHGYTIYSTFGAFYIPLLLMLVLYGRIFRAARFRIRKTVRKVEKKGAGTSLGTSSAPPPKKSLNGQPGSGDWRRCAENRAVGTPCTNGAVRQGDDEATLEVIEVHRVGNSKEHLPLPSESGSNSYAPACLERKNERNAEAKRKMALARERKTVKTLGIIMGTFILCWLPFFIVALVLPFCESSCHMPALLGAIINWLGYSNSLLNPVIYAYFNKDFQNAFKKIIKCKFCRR
The test is described as follows: Binding affinity to 5-hydroxytryptamine 1A receptor (5-HT 1A receptor, serotonin receptor) from rat cortex using [3H]8-OH-DPAT as radioligand.

For test [17], the system named is Mus musculus. The test is described as follows: Antidepressant-like activity in the forced swimming test (FST) in mice at 1 mg/kg dose; Antidepressant like activity. The format is functional.
The subject of test [18] is Mus musculus. In words: Antidepressant-like activity in the forced swimming test (FST) in mice at 0.1 mg/kg dose; Antidepressant like activity. The format is functional.
The subject of test [19] is Mus musculus. In words: Antidepressant-like activity in the forced swimming test (FST) in mice at 10 mg/kg dose; Antidepressant like activity. The class given is functional.
Test [20] has as its system Mus musculus. The test is described as follows: Antidepressant-like activity in the forced swimming test (FST) in mice at 0.01 mg/kg dose; Antidepressant like activity. The class given is functional.
The subject of test [21] is Mus musculus. In words: Effect on immobility time in the forced swimming test (FST) in mice at 0.01 mg/kg dose. The class given is functional.
Test [22] relates to Mus musculus. The test is described as follows: Effect on immobility time in the forced swimming test (FST) in mice at 0.1 mg/kg dose. The format is functional.
For test [23], the system named is Mus musculus. In words: Antidepressant-like activity in the forced swimming test (FST) in mice at 0.1 mg/kg dose. The class given is functional.
In test [24] the test system is Rattus norvegicus. The test is described as follows: Effect on helpless behavior in rats and the number of escape failures was determined in shuttle-box session-2 (SB-2) at 10 mg/kg dose. The format is functional.
Test [25] relates to Rattus norvegicus. In words: Effect on helpless behavior in rats and the number of escape failures was determined in shuttle-box session-1 (SB-1) at 10 mg/kg dose. The class given is functional.
Test [26] relates to Rattus norvegicus. The test is described as follows: Effect on helpless behavior in rats and the number of escape failures was determined in shuttle-box session-3 (SB-3) at 10 mg/kg dose. The class given is functional.

Sequence of Sodium-dependent serotonin transporter (P31652 whole entry): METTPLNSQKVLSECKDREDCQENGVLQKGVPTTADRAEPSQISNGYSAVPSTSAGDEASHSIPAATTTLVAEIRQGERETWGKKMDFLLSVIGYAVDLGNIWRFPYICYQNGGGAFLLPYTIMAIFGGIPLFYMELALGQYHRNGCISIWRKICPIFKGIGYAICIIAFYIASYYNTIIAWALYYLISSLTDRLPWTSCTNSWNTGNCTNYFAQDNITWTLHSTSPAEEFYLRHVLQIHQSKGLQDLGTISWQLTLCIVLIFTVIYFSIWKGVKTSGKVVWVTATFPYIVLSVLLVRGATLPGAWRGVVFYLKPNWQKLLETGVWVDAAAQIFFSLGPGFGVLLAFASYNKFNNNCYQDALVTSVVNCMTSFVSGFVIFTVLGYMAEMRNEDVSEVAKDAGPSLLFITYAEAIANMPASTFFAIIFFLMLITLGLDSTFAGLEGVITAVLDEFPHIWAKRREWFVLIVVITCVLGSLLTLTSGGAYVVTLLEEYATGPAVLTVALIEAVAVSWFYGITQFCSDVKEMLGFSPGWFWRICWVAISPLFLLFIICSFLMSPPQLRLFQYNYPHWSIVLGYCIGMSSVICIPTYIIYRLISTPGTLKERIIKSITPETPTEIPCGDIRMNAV

`Fc1ccc([C@@H]2CCNC[C@H]2COc2ccc3c(c2)OCO3)cc1` [PAROXETINE]: the “No. of escape failures” value in test [1] is listed as 3.3; in [2], 2.2; in test [3], 3.

Regarding `COc1ccccc1N1CCN(CCC(O)c2cc(C)sc2C)CC1` (stereo not drawn), the Immobility time in test [4] stood at 111 s; in test [8] it was 124.3 s; in test [10] it was 103 s. Besides, the Temperature change was -2.53 °C in test [5]; -2.13 °C in test [6]; -1.21 °C in [7]; -2.01 °C in test [9]; -1.86 °C in test [12]; -1.26 °C in test [15]. In addition, the values for the negative-log Ki (pKi) in test [11] (read-out: Ki) and in test [16] were 6.94 and 7.92, respectively. In addition, the Activity is given as 13% in test [13] and 20% in test [14].

Consider `Oc1ccccc1N1CCN(CCC(O)c2ccc3ccccc3c2)CC1` (stereo not drawn), for which the Immobility time stood at 178.3 s in test [4] and 24.4 s in test [10]. In addition, the Temperature change in [5] is -2.52 °C; in test [6], -2.03 °C; in test [7], -1.12 °C; in test [9], -1.97 °C; in test [12], -2.41 °C; in test [15], -0.93 °C. The values for the Activity in [17], in [18] and in test [19] were 0%, 0% and 93%, respectively. Also, the pKi in [11] and in test [16] was 6.72 each time.

Turning to `Oc1ccccc1N1CCN(CCC(O)c2csc3ccccc23)CC1` (stereo not drawn), the Immobility time in test [4] is reported as 183.3 s; in test [21], 186.1 s; in test [22], less than 112.5 s; in test [8], 178 s; in test [10], 160.9 s. Moreover, the Activity is given as 0% in [20], 0% in test [17], 40% in test [18] and 11% in test [19]. The Temperature change is -2.54 °C in test [5]; -2.01 °C in [6]; -1.38 °C in test [7]; -3.17 °C in [9]; -2.2 °C in [12]; -1.32 °C in test [15]. For the same molecule, the figures for the pKi in [11] (read-out: Ki) and in [16] (read-out: Ki) were 7.41 and 7.74, respectively.

Consider `FC(F)(F)c1ccc(OC(CCN2CCN(c3ncccn3)CC2)c2ccccc2)cc1` (stereo not drawn), for which the pKi in test [11] (read-out: Ki) and in [16] (read-out: Ki) was 5.80 throughout.

With `OC(CCN1CCN(c2ccccc2Cl)CC1)c1ccccc1` (stereo not drawn), the values for the pKi in [11] (read-out: Ki) and in test [16] were less than 5.30 and 6.94, respectively.

Regarding `COc1ccccc1N1CCN(CCC(Oc2cccc3ccccc23)c2cccs2)CC1` (stereo not drawn), the pKi was less than 5.30 in [11] (read-out: Ki) and 6.66 in test [16].

With `COc1ccccc1N1CCN(CC/C(=N\O)c2ccsc2)CC1`, the negative logarithm of the Ki (pKi) in test [11] (read-out: Ki) is 6.02; in test [16], 8.19.

`COc1ccccc1N1CCN(CCC(=O)c2ccsc2)CC1`: the Immobility time in [4] is less than 118.8 s; in test [22], 169.5 s; in [8], 170.1 s; in test [10], less than 44.9 s. For the same molecule, the Temperature change is -2.52 °C in [5]; -2.04 °C in test [6]; -1.48 °C in test [7]; -2.76 °C in [9]; -2.18 °C in test [12]; -1.88 °C in [15]. For the same molecule, the Activity is given as 0% in test [23], 34% in [13] and 83% in test [14]. Also, the pKi in test [11] (read-out: Ki) was 6.95; in [16] (read-out: Ki) it was 7.80.

For the molecule `COc1cc(Cl)ccc1N1CCN(CCC(=O)c2csc3ccccc23)CC1`, the pKi is 6.56 in test [11] (read-out: Ki) and 6.30 in test [16] (read-out: Ki).

With `O=C(CCN1CCN(c2ccc(F)cc2)CC1)c1ccccc1`, the pKi is less than 5.30 in [11] (read-out: Ki) and 6.10 in test [16] (read-out: Ki).

`O=C(CCN1CCN(c2ccccc2O)CC1)c1ccc2ccccc2c1`: the pKi in test [11] (read-out: Ki) is 5.60; in test [16] (read-out: Ki), 6.00.

As to `CN(C)CCC=C1c2ccccc2CCc2ccccc21` [AMITRIPTYLINE], the figures for the “No. of escape failures” value in [24], in test [25] and in [26] were less than 3.3, less than 9 and less than 1.2, respectively.

`COc1ccccc1N1CCN(CCC(O)c2ccc3ccccc3c2)CC1` (stereo not drawn): the values for the pKi in test [11] (read-out: Ki) and in test [16] were 6.42 and 6.38, respectively.

On to `O=[N+]([O-])c1ccc(N2CCN(CCC(O)c3ccccc3)CC2)cc1` (stereo not drawn), for which the figures for the pKi in [11] (read-out: Ki) and in test [16] (read-out: Ki) were 5.94 and less than 5.30, respectively.

Take `COc1ccccc1N1CCN(CCC(=O)c2ccc(C)s2)CC1`: the pKi in test [11] (read-out: Ki) is less than 5.30; in test [16] (read-out: Ki) it was 7.76.

With `COc1ccc(OC(CCN2CCN(c3ccc(Cl)cc3)CC2)c2ccccc2)cc1` (stereo not drawn), the pKi in [11] (read-out: Ki) is 6.30; in [16] (read-out: Ki), 5.84.

On to `OC(CCN1CCN(c2ccccc2Cl)CC1)c1ccsc1` (stereo not drawn), for which the results for the pKi in test [11] (read-out: Ki) and in [16] (read-out: Ki) were less than 5.30 and 6.70, respectively.

For `COc1ccc(N2CCN(CCC(Oc3ccc(C(F)(F)F)cc3)c3ccccc3)CC2)cc1` (stereo not drawn), the pKi in test [11] (read-out: Ki) and in [16] (read-out: Ki) was less than 5.30 each time.

Take `O=C(CCN1CCN(c2ccc(Cl)cc2)CC1)c1cccs1`: the negative-log Ki (pKi) in test [11] (read-out: Ki) is 7.22; in [16] (read-out: Ki), less than 5.30.

For the molecule `Cc1cc(C(O)CCN2CCN(c3ccccc3O)CC2)c(C)s1` (stereo not drawn), the pKi in test [11] (read-out: Ki) was 5.60; in test [16] it was 7.05.

Turning to `O=C(CCN1CCN(c2ccc(Cl)cc2)CC1)c1ccccc1`, the pKi is 6.52 in [11] (read-out: Ki) and 6.10 in test [16] (read-out: Ki).

As for `O=C(CCN1CCN(c2cccc3ccccc23)CC1)c1ccsc1`, the pKi in [11] (read-out: Ki) is 6.10; in test [16] it was 7.46.

On to `COc1ccccc1N1CCN(CCC(O)c2cccs2)CC1` (stereo not drawn), for which the negative-log Ki (pKi) in test [11] (read-out: Ki) is 5.90; in test [16], 7.72.

Turning to `Fc1ccc(N2CCN(CCC(Oc3ccc(C(F)(F)F)cc3)c3ccccc3)CC2)cc1` (stereo not drawn), the pKi in [11] (read-out: Ki) was 6.30; in test [16] (read-out: Ki) it was less than 5.30.

On to `COc1cc(Cl)ccc1N1CCN(CCC(=O)c2cc(C)sc2C)CC1`, for which the pKi is 6.56 in [11] (read-out: Ki) and 6.30 in [16] (read-out: Ki).

For `COc1ccccc1N1CCN(CCC(=O)c2ccc(-c3ccccc3)cc2)CC1`, the pKi in test [11] (read-out: Ki) was 6.15; in test [16], 5.44.

Regarding `O=[N+]([O-])c1ccc(N2CCN(CCC(Oc3ccc(C(F)(F)F)cc3)c3ccccc3)CC2)cc1` (stereo not drawn), the figures for the pKi in test [11] (read-out: Ki) and in test [16] (read-out: Ki) were 5.60 and less than 5.30, respectively.
